From paper PMC3779154, “Identification of Therapeutic Candidates for Chronic Lymphocytic Leukemia from a Library of Approved Drugs” (PLoS ONE, 2013)
Read-outs that look alike come from different tables or passages of the source.

Tests used:
[1] = tested on: caspase-3/7; experiment: Caspase-Glo 3/7 activation assay in CLL samples; format: cell-based, human; conditions: read-out: EC50 caspase-3/7 activity
Protocol: The effect of selected compounds on caspase activity was measured using a homogeneous luminescent method (Caspase-Glo® 3/7, 8 and 9 kits, Promega, Madison, WI). Briefly in this assay, caspase induced by cells cleaves a pro-luciferin substrate where a tetrapeptide caspase substrate - DEVD (asp-glu-val-asp) is cleaved to free aminoluciferin, which can be used as a substrate by luciferase yielding a bioluminescent signal. The luminescent signal is proportional to the amount of caspase activity present in the cells. Cells were dispensed in culture medium at 5,000/cells/5uL/well in 1536-well white/solid-bottom assay plates. The cells were incubated for overnight at 37°C. The compounds (23nL/well) were added via the pin tool. The treated cells were further incubated for 24 h at 37°C, followed by the addition of the Caspase-Glo 3/7, 8 or 9 reagents at 5uL/well. After a 30 min incubation at room temperature, the luminescence intensity of the assay plates was measured using a ViewLux Plate Reader. The caspase activity was normalized to DMSO control.

[2] = tested on: lymphocytes from normal donors; experiment: qHTS luminescent ATP cell viability assay, primary screen, normal donor lymphocytes; conditions: differential efficacy or IC50 shift >5-fold
Description: (§1) Lymphocytes from 13 CLL treatment naïve patients (Table 1 ) and 5 normal donors were obtained by lymphapheresis with written informed consent and isolated by gradient centrifugation using Lymphocyte Separation Medium (MP Biomedicals, Solon, OH) and used fresh or cryopreserved in liquid nitrogen in 10% dimethyl sulfoxide, 90% FCS. CLL patients were consented on the institutional review board (IRB) approved at the National Heart, Lung, and Blood Institute (NHLBI, Office of Clinical Affairs, Bldg 10, CRC. Room 6-5140, Bethesda, Maryland 20892-1608) with protocol 04-H-0012 and samples from normal donors were collected by the Department of Transfusion Medicine, National Institutes of Health (NIH). This study was approved by the IRB mentioned above. Fresh cells were temporally placed on ice and plated for screening within 3 hrs of apheresis. Frozen cells were thawed the night before the assay and incubated in T175 flask in AIM V medium to recover overnight. Analysis of IGHV gene status was performed as described. CLL samples were cultured in AIM V serum free medium (Gibco-Invitrogen, Long Island, NY).
(§2) Compound formatting and qHTS were performed as described previously. The final concentration of the NPC compounds in the 4 µL assay volume ranged from 57 µM to 0.7 nM in 1:5 dilution steps. The positive control plate format was as follows: columns 1 and 3, DMSO only; column 2, doxorubicin, a known cytotoxic chemotherapy agent in a 1:2 dilution series from 10 µM to 5 nM in DMSO; and column 4, doxorubicin at 10 µM in DMSO.
To determine compound activity in the qHTS assay, the concentration-response data for each sample was plotted and modeled by a four parameter logistic fit yielding IC50 and efficacy (maximal response) values as previously described. […] Briefly, raw plate reads for each titration point were first normalized relative to the positive control compound (100%) and DMSO-only wells (basal, 0%), and then corrected by applying a pattern correction algorithm using compound-free control plates (i.e., DMSO-only plates) at the beginning and end of the NPC compound plate stack. […]

[3] = tested on: fresh CLL patient lymphocytes; experiment: cells; conditions: Homo sapiens, Lymphocyte
Protocol: (§3) Cell viability was measured using a luciferase-based ATP quantitation assay (CellTiter-Glo^TM, Promega). The intracellular ATP content indicates the number of viable (i.e. metabolically competent) cells after compound treatment. […] After that, a total of 23 nL of compounds at 8 selected concentrations from the NPC library or positive control (10 mM stock of doxorubicin hydrochloride) in DMSO was transferred to each well of the assay plate using a pintool (Kalypsys, San Diego, CA), and the plates were further incubated at 37 °C with 5% CO2 for 24 hours to allow the reaction. Then 4µL of CellTilter-Glo luminescent substrate mix was added to each well. The plate was incubated at room temperature for 15 minutes. The plates were measured on a ViewLux plate reader (PerkinElmer) with clear filter. […] The test volume of 5,000 cells/4 μL/well was selected as the final assay condition in cell density tests based on the assay performance statistics: signal/background ratio, coefficient of variation and Z’-factor (data not shown).
(§4) Fresh primary cells were also obtained from two unaffected normal donors and seven CLL patients whose blood samples were collected within hours of apheresis and which had not been included in our previous experiments.

[4] = tested on: lymphocytes from normal donors; experiment: cells; conditions: Homo sapiens, Lymphocyte, read-out: IC50 normal
Protocol: (§5) Cell viability was measured using a luciferase-based ATP quantitation assay (CellTiter-Glo^TM, Promega). The intracellular ATP content indicates the number of viable (i.e. metabolically competent) cells after compound treatment. Four µL of CLL cells resuspended in AIM medium at 1,330,000 cells/ml, were dispensed into each well of white, solid bottom, 1536-well tissue culture–treated plates using a Multidrop-Combi dispenser and incubated overnight. After that, a total of 23 nL of compounds at 8 selected concentrations from the NPC library or positive control (10 mM stock of doxorubicin hydrochloride) in DMSO was transferred to each well of the assay plate using a pintool (Kalypsys, San Diego, CA), and the plates were further incubated at 37 °C with 5% CO2 for 24 hours to allow the reaction. Then 4µL of CellTilter-Glo luminescent substrate mix was added to each well. The plate was incubated at room temperature for 15 minutes. The plates were measured on a ViewLux plate reader (PerkinElmer) with clear filter.
(§6) These compounds were then re-tested in the cell viability assay using 12 point titrations with concentration ranging from 57 µM to 0.3 nM with 1:3 dilution.
as §4

[5] = tested on: lymphocytes from normal donors; conditions: for difference in efficacy between CLL and unaffected donor samples: at 19 µM and 57 µM, the two highest testing concentrations; for potency shift between CLL and normal donor samples: fresh cells, normal IC50 vs CLL IC50
Protocol: as §5, §6, §4

[6] = tested on: fresh CLL patient lymphocytes; conditions: for IC50: read-out: IC50 CLL, average of cells from 7 CLL patients, fresh, Figure 5
Protocol: as §3, §4

[7] = tested on: human thioredoxin reductase; set-up: method as in PMID 19665452; conditions: NADPH-reduced form; cited from earlier work
[8] = tested on: ME-180 human cervical carcinoma cell line; experiment: Cell viability assay, ME-180 cells (NPC library profiling)
Description: Based on the definition of actives, inactives and inconclusive mentioned above, compounds were further clustered hierarchically using Spotfire DecisionSite 8.2 (Spotfire Inc., Cambridge, MA) based on their activity outcomes from the primary screen across a wide variety of cell viability assays against different cell lines or primary patient cells. Each compound was converted into an integer which represents its activity outcome in each cell viability assay. […] Integer 2 represents compounds in “inconclusive” category which is corresponding to light red in the heat map. […] Compounds not tested in the assay were labeled as 4 and shown as grey in the heat map.

[9] = tested on: normal and solid tumor cell lines
[10] = tested on: lymphocytic leukemia P388; set-up: method as in PMID 6778607; conditions: cited from earlier work
[11] = tested on: primary CLL cells; experiment: qHTS luminescent ATP cell viability assay (CellTiter-Glo), primary screen, frozen CLL patient cells; format: cell-based, human; conditions: CLL cells, 24 h, Figure 1
Description: as §1, §2
To determine compound activity in the qHTS assay, the concentration-response data for each sample was plotted and modeled by a four parameter logistic fit yielding IC50 and efficacy (maximal response) values as previously described. Data normalization and curve fitting were performed using in-house informatics tools. Briefly, raw plate reads for each titration point were first normalized relative to the positive control compound (100%) and DMSO-only wells (basal, 0%), and then corrected by applying a pattern correction algorithm using compound-free control plates (i.e., DMSO-only plates) at the beginning and end of the NPC compound plate stack. […] In brief, Class 1.1 and 1.2 were the highest-confidence complete CRCs containing upper and lower asymptotes with efficacies ≥ 80% and < 80%, respectively. Class 2.1 and 2.2 were incomplete CRCs having only one asymptote with efficacy ≥ 80% and < 80%, respectively.
Compounds from the primary qHTS screen were further classified into three categories according to the quality of curve fit and efficacy.

[12] = tested on: CLL; set-up: method as in PMID 20603650; conditions: oral, single-agent, treated CLL patients; cited from earlier work
[13] = Homo sapiens, CLL samples, 24 hours

For `Nc1ncn([C@@H]2O[C@H](CO)[C@@H](O)[C@H]2O)c(=O)n1` [azacitidine], the EC50 [1, 13] was 5100 nM, the “differential cytotoxicity between CLL cells and lymphocytes from normal donors” value [2] was “differential cytotoxicity” and the IC50 ([3]; read-out: IC50 CLL, average of cells from 7 CLL patients, fresh, Figure 5) was 8.1 µM. For the same compound, the IC50 [4] was 15.9 µM, the “difference in efficacy between CLL and unaffected donor samples” value [5] was “over 40%” and the “potency shift between CLL and normal donor samples” value [5] was “about 3 fold”. For the same compound, the “decreased efficacy to normal B cells” value ([5]; versus CLL cells) was “over 40%”.
With `COc1cc([C@@H]2c3cc4c(cc3[C@H](O)[C@H]3COC(=O)[C@H]23)OCO4)cc(OC)c1OC` [podofilox] the EC50 ([1]; Homo sapiens, 24 h) was under 100 nM, the IC50 [4] was 0.15 µM and the “cytotoxicity on lymphocytes derived from unaffected donors” value [5] was “almost no cytotoxicity”. The “difference in efficacy between CLL and unaffected donor samples” value [5] was “over 40%”, the “decreased efficacy against B-cells from normal donors” value ([5]; at the testing concentration of 1.7 µM) was “approximately 40%” and the “potency shift between CLL and normal donor samples” value [5] was “about 3 fold”. The “efficacy (cytotoxicity)” value ([6]; human) was over 60%, the IC50 [6] was under 1000 nM and the IC50 ([6]; listed as Podofilox) was 60 nM.
For `OC[C@H]1O[C@H]([S-])[C@H](O)[C@@H](O)[C@@H]1O.[Au+]` [aurothioglucose], the “inhibition of human thioredoxin reductase” value [7] is listed as “strongly inhibit”.
For tyrothricin, the “cytotoxicity in ME-180 cells” value [8] was “prominent cytotoxicity”, the “activity in cytotoxicity profiling assays” value [9] was “pan-active” and the “potency variation across cytotoxicity profiling assays” value [9] was under 5 fold.
In the case of `CC(=O)OC[C@H]1O[C@@H]([S-])[C@H](OC(C)=O)[C@@H](OC(C)=O)[C@@H]1OC(C)=O.CCP(CC)CC.[Au+]` [auranofin], the EC50 ([1]; CLL samples, 24 hours) is given as under 100 nM, the “life span of mice inoculated with lymphocytic leukemia P388” value [10] is given as “effective in increasing the life span” and the “differential cytotoxicity between CLL cells and lymphocytes from normal donors” value [2] is given as “differential cytotoxicity”. The “inhibition of human thioredoxin reductase” value [7] was “strongly inhibit”, the “potency shift between CLL and normal donor samples” value [5] was 30 fold and the “potency shift between CLL and normal donor samples” value ([5]; listed as Auranofin) was “greater than 30 fold”. The IC50 ([5]; read-out: IC50 normal, average of 2 normal donors, fresh, Figure 5) was 2050 nM, the IC50 [6] was under 1000 nM and the IC50 ([6]; listed as Auranofin) was 70 nM.
In the case of `O=C(O)CCCc1ccc(N(CCCl)CCCl)cc1` [chlorambucil], the concentration-response curve class [11] is listed as 3, the IC50 ([3]; 24 h) is listed as 12 to 30 µM and the “frequency of complete responses” value [12] is listed as “less than 5%”.
With `OCC(S)CS` (centres unmarked) [dimercaprol] the EC50 [1, 13] was under 100 nM, the “differential cytotoxicity between CLL cells and lymphocytes from normal donors” value [2] was “differential cytotoxicity” and the IC50 [4] was 19.4 µM. For the same compound, the “potency shift between CLL and normal donor samples” value [5] was 50 fold, the IC50 [6] was under 1000 nM and the IC50 ([6]; listed as Dimercaprol) was 380 nM.
